The values that follow come from paper PMC7824550 (Biomolecules, 2020).

Data set [1] deals with T1, human cathepsin B (Homo sapiens, UniProt P07858). Kind of data set: Inhibition of cathepsin B, fluorogenic substrate Z-Phe-Arg-AMC. The settings on record: for Ki: cathepsin B.
Data set [2] addresses T2, human cathepsin L (Homo sapiens, UniProt P07711).
T2 construct: made in house
Kind of data set: Inhibition of cathepsin L, fluorogenic substrate Z-Leu-Arg-AMC. The settings on record: for Mechanism of inhibition of cathepsin L / Ki: pH 5.5. The class given is biochemical.

Data set [3] addresses T3, cathepsin K (Homo sapiens, UniProt P43235).
T3 sequence (P43235 115-329): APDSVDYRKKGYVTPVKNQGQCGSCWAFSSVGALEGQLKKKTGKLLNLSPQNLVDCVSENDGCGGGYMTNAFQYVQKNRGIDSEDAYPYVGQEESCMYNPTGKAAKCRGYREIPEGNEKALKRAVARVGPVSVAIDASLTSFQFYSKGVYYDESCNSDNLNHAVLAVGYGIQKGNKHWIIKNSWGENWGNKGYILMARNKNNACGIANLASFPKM
Kind of data set: Inhibition of cathepsin K (results not shown). The class given is biochemical. The settings on record: confirmed in the authors' laboratory.

Data set [4] is described as follows: Solubility under the experimental conditions used. The class given is physicochemical. The settings on record: assay buffer of the cathepsin L inhibition screening, aqueous buffer; under the experimental conditions used (pH 5.5 assay buffer); read-out: Limited solubility. As to the method: The kinetic characterization of CA, CAPE, and CGA was initially performed under the same conditions as the inhibition screening (pH 5.5). All compounds acted as fast, linear inhibitors of cathepsin L, as observed for DPPI [17]. Kinetic mechanisms and inhibition parameters were determined by a combination of titration curves (plots of the residual enzyme activity (vX/v0) against the inhibitor concentration) and replots of the experimental data as specific velocity plots. The remaining titration curves were collected in Supplementary Figure S1. […] However, a more precise characterization of its effect was made difficult by its limited solubility of only up to about 200 μM under the experimental conditions used.

Data set [5] has as its target T1, human cathepsin B. Kind of data set: Inhibition of peptidyl-dipeptidase activity of cathepsin B, substrate Abz-Gly-Ile-Val-Arg-Ala-Lys(Dnp)-OH. The class given is biochemical. Set-up: made in house. The settings on record: pH 5.5, [S] = Km, read-out: IC50, peptidyl-peptidase activity of cathepsin B. As for the experimental part:
In addition, the peptidyl-dipeptidase activity of cathepsin B was measured with the internally quenched fluorigenic substrate Abz-Gly-Ile-Val-Arg-Ala-Lys(Dnp)-OH. Cleavage of this substrate was assessed at λex = 370 nm and λem = 430 nm. […] Nevertheless, appropriate correction of the inner filter effect was performed for all compounds according to the following reference.
For linear (complete) inhibitors, v∞ = 0.

Data set [6] concerns dipeptidyl-peptidase I (DPPI). Set-up: method as in PMID 31574257. The settings on record: previously characterized; cited from earlier work.
Setting [7] is: KCa, pH 5.5, catalytic (uncompetitive) inhibition constant.
Where [8] appears, read: KCa, pH 7.4, catalytic (uncompetitive) inhibition constant.
Where [9] appears, read: KSp, pH 7.4, specific (competitive) inhibition constant.
[10] abbreviates: catalytic (uncompetitive) inhibition constant, read-out: KCa, cathepsin L.
Where [11] appears, read: specific (competitive) inhibition constant, read-out: KSp, cathepsin L.
Where [12] appears, read: KSp, pH 5.5, specific (competitive) inhibition constant.

For orientation: IC50 means the point on the concentration scale where inhibition reaches its midpoint. Broadly, the solubility is how much of the substance goes into solution per volume.

Like-named read-outs stand apart in the source and are kept apart here. Where only a bound is given, the exact number is not on record here.

T2 sequence (P07711 114-333): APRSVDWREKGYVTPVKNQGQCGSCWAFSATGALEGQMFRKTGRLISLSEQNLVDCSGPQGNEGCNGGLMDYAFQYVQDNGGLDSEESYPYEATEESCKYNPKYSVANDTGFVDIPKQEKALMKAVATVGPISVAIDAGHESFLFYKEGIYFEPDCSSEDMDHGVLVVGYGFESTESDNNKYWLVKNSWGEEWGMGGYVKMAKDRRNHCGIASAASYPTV

As for `O=C(O)C=Cc1ccc(O)cc1O` [2,4-Dihydroxy-cinnamic acid, 2,4-dihydroxycinnamic acid], the IC50 came to 910 ± 30 µM in data set [1] and 930 ± 150 µM in data set [2].
As for `O=C(/C=C/c1ccc(O)c(O)c1)OCCc1ccccc1` [Caffeic acid phenethyl ester, caffeic acid phenethyl ester], the IC50 in data set [1] was found to be 470 ± 30 µM; in data set [2] it was 190 ± 30 µM; in data set [5], 100 ± 20 µM. The Ki in data set [1] (setting [7]) worked out at 140 ± 10 µM; in data set [1] (setting [8]) it was 70 ± 19 µM; in data set [1] (setting [9]), 107 ± 38 µM; in data set [2] (setting [10]), 170 ± 30 µM; in data set [2] (setting [11]), 120 ± 70 µM. For the same compound, the “Mechanism of inhibition of cathepsin B” value was “Catalytic” in data set [1] (pH 5.5) and “Mixed” in data set [1] (pH 7.4). In data set [3], the “Inhibition of cathepsin K” value is “no inhibition”. Moreover, the “Mechanism of inhibition of cathepsin L” value in data set [2] was “Mixed”. In data set [4], the solubility was approximately 200 µM.
In the case of `O=C(O)C=Cc1ccc(O)c(O)c1` [Caffeic acid, 3,4-dihydroxycinnamic acid], the “Mechanism of inhibition of DPPI” value in data set [6] is “linear, mixed balanced”. Besides, the IC50 was 110 ± 10 µM in data set [1], more than 1000 µM in data set [2] and more than 1000 µM in data set [5]. For the same compound, the Ki in data set [1] (setting [7]) worked out at 82 ± 16 µM; in data set [1] (setting [8]), 46 ± 4 µM; in data set [1] (setting [12]), 270 ± 140 µM; in data set [2] (setting [10]), 1270 ± 120 µM; in data set [2] (setting [11]), 740 ± 70 µM. The “Mechanism of inhibition of cathepsin B” value in data set [1] (pH 7.4) is recorded as “Catalytic”. The “Inhibition of cathepsin K” value in data set [3] is listed as “no inhibition”. For the same compound, the “Mechanism of inhibition of cathepsin L” value in data set [2] is “Mixed”.
Consider `O=C(/C=C/c1ccc(O)c(O)c1)O[C@@H]1C[C@](O)(C(=O)O)C[C@@H](O)[C@H]1O` [Chlorogenic acid, chlorogenic acid], for which the “Mechanism of inhibition of DPPI” value in data set [6] was “linear catalytic”. Also, the results for the IC50 in data set [1], in data set [2] and in data set [5] were 340 ± 20 µM, 480 ± 20 µM and 360 ± 60 µM, respectively. Besides, the Ki in data set [1] (setting [7]) turned out to be 1200 ± 1100 µM; in data set [1] (setting [8]), 92 ± 15 µM; in data set [1] (setting [12]), 340 ± 80 µM; in data set [1] (setting [9]), 92 ± 15 µM; in data set [2] (setting [10]) it was 670 ± 60 µM; in data set [2] (setting [11]), 330 ± 20 µM. Also, the “Mechanism of inhibition of cathepsin B” value in data set [1] (pH 5.5) is reported as “Mixed”; in data set [1] (pH 7.4), “Mixed balanced”. For the same compound, in data set [2], the “Mechanism of inhibition of cathepsin L” value is “Mixed”.
Take `O=C(O)/C=C/c1ccccc1` [Cinnamic acid]: the IC50 in data set [1] and in data set [2] was more than 1000 µM throughout.
Take `O=C(O)CCc1ccc(O)c(O)c1` [Hydrocaffeic acid, 3-(3,4-Dihydroxyphenyl) propionic acid]: the concentration for half-maximal inhibition (IC50) in data set [1] and in data set [2] was more than 1000 µM each time.
Take `O=C(O)/C=C/c1ccccc1O` [o-Coumaric acid]: the concentration for half-maximal inhibition (IC50) in data set [1] and in data set [2] was more than 1000 µM throughout.
Turning to `O=C(O)C=Cc1ccc(O)cc1` [p-Coumaric acid], the IC50 in data set [2] was more than 1000 µM.
